Test results published in paper PMC10252594 (Cancers, 2023).
Like-named read-outs stand apart in the source and are kept apart here.

Columns and labels:
[1] = test system: LAPC-4 xenografts; test: Cholesterol determination in tumor, liver, plasma (kit, method A); format: in vivo, mice; settings: 10 mg/kg PO, NS vs CTL
Protocol: A cholesterol quantification kit provided by Sigma-Aldrich (Catalog Number MAK043) was used following the manufacturer’s instructions to determine the concentration of total cholesterol, free cholesterol, and cholesteryl ester in samples. The cholesterol contents were measured in samples from two different protocols. […] Secondly, in tumor, liver, and plasma obtained at the end of the LAPC-4 xenograft experiment (control group and the group treated with RM-581 at 10 mg/kg/PO).

[2] = test system: PC-3 xenograft; parameters: method as in PMID 34681843; settings: cited from earlier work
[3] = test system: LAPC-4 xenografts
From the text: The xenograft experiment was approved by the Université Laval Animal Care Committee (Comité de Protection des Animaux de l’Université Laval, Québec, QC, Canada) and carried out in an animal facility approved by the Canadian Council on Animal Care (CCAC). Homozygous male Balb/c athymic nude mice (~42 days old, weighing approximately 28 g) were obtained from Charles River Inc. (Saint-Constant, QC, Canada) and housed (4 to 5) in vinyl micro-isolated ventilated cages equipped with air lids. Cages were kept in laminar airflow hoods and maintained in pathogen-limiting conditions. The animals were housed under a controlled environment at 22 ± 3 °C with 50 ± 20% relative humidity and light set at 12 h/day (light on at 07:15) during the acclimatization and study periods. Sterile water and rodent food (Rodent Diet #T.2018.15, Harlan Teklad, Madison, WI, USA) were provided ad libitum.
After an acclimatization period of 5 days, the mice were inoculated into both flanks by subcutaneous (SC) injection of 4 × 10^6 LAPC-4 cells (Passage 14) in 0.1 mL of growth medium containing 50% Matrigel (BD Biosciences, Mississauga, ON, Canada) via a 2.5-cm long 22-gauge needle. Two weeks later, mice that developed tumors were randomized according to tumor volume, divided into […] groups (Gr-1 to Gr-8), and treated over a period of 28 days. A bilateral orchiectomy was performed under isoflurane-induced anesthesia for Gr-1 but not for Gr-2 to Gr-8. Both Gr-1 (CTX control (CTL), 9 mice, 16 tumors) and Gr-2 (intact CTL, 9 mice, 18 tumors) were treated with 0.1 mL of the vehicle alone (8% DMSO/92% propylene glycol (PG) administered by gavage (PO). Gr-3 (30 mg/kg/PO, 10 mice, 19 tumors) received 0.843 mg of RM-581. Gr-4 (10 mg/kg/PO, 10 mice, 20 tumors) received 0.281 mg of RM-581. Gr-5 (3 mg/kg/PO, 10 mice, 18 tumors) received 0.084 mg of RM-581. Gr-6 (60 mg/kg/SC, 9 mice, 18 tumors) received 1.686 mg of abiraterone. Gr-7 (60 mg/kg/PO, 9 mice, 17 tumors) received 1.686 mg of abiraterone acetate. Gr-8 (4 mg/kg/IP, 9 mice, 17 tumors) received 0.112 mg of docetaxel.
RM-581 and abiraterone acetate were administered six days a week PO; abiraterone was administered six days a week SC; and docetaxel was administered twice a week by intraperitoneal (IP) injection. RM-581 was first dissolved in DMSO, and thereafter we added PG to obtain the appropriate concentration in the vehicle fluid (8% DMSO/92% PG). Abiraterone acetate and abiraterone were dissolved in 0.3% hydroxypropyl cellulose in saline (0.9% NaCl), while docetaxel was first dissolved in DMSO, and thereafter we added phosphate-buffered saline (PBS) to obtain the proper concentration in the carrier fluid (0.5% DMSO/99.5% PBS). All solutions were prepared one day prior to the initiation of treatment and stored at 4 °C under constant agitation.
The mice were weighed at the start and end of the protocol. Tumor area (mm^2) was calculated twice a week using two perpendicular diameters (L and W), which were recorded using a caliper, and the formula L/2 × W/2 × π. The area measured on the first day of treatment was fixed at 100%. At the end of the studies and 3 h after the last treatment, the mice were terminally anesthetized, and their final body weights were measured. Tumors, liver, kidney, and total prostate were collected from mice during necropsy, while blood was collected by cardiac puncture. Tissues and plasma were immediately frozen at −80 °C until analysis.

[4] = test system: VCaP; test: PCa cell viability proliferation screening (MTS), VCaP; format: cell-based; settings: Homo sapiens, 168 h, AR positive, seven days
Protocol: VCaP (4 × 10^4 cells/well) were seeded in 96-well plates in DMEM media supplemented with 10% fetal bovine serum (FBS), penicillin, streptomycin, and sodium pyruvate. 22Rv1 cells (2 × 10^3 cells/well) and LAPC-4 cells (6 × 10^3 cells/well) were seeded in 96-well plates in RPMI media supplemented with 10% FBS, penicillin, streptomycin, and sodium pyruvate. The cells were incubated at 37 °C in a 5% CO2 humidified atmosphere for 24 h before treatment with multiple concentrations of RM-581 dissolved in dimethyl sulfoxide (DMSO). The concentrations used were between 0.01 μM and 50 μM. Treatment lasted for 3 days for all the cell lines except VCaP cells, which were treated for 7 days due to slower proliferation rates. At the end of the assay, 20 μL of MTS (Cell Titer 96 Aqueous, Promega, Nepean, ON, Canada) were added to each well, and the mixture was incubated for 4 h at 37 °C. The plates were subsequently analyzed at 490 nm using a Tecan M-200 microplate reader (Männedorf, Switzerland).

With `C#C[C@]1(O)CC[C@H]2[C@@H]3CCc4cc(OC)c(N5CCN(C(=O)[C@@H]6CCCN6C(=O)c6ccc7ccccc7n6)CC5)cc4[C@H]3CC[C@@]21C` [RM-581] the “F-CHOL (free cholesterol), liver” value [1] was 2410 ± 10 (NS) µg/g, the “F-CHOL (free cholesterol), plasma” value [1] was 403 ± 120 (NS) µg/mL and the “F-CHOL (free cholesterol), tumor” value [1] was 3270 ± 236 (NS) µg/g. The “T-CHOL (total cholesterol), liver” value [1] was 2440 ± 475 (NS) µg/g, the “T-CHOL (total cholesterol), plasma” value [1] was 1820 ± 500 (NS) µg/mL and the “T-CHOL (total cholesterol), tumor” value [1] was 4543 ± 2476 (NS) µg/g. The “effective oral dose for tumor regression” value ([2]; PC-3 xenograft, PO) was 60 mg/kg, the “FA and cholesterol in tumors” value ([2]; tumors from PC-3 xenografts) was “significant decrease” and the “time to significant difference with intact (untreated) group” value (“time to significant difference” for short) ([3]; 3 mg/kg PO) was 14 days. For the same molecule, the tumor growth ([3]; 3 mg/kg PO, 6 days per week) was “tumors returned to their original size after 22 days”, the “time to significant difference” value ([3]; 10 mg/kg PO) was 7 days and the “tumor size compared with 30 mg/kg group” value ([3]; 10 mg/kg PO, 6 days per week, day 28) was “identical at the end of the protocol”. The “time to significant difference” value ([3]; 30 mg/kg PO) was 7 days, the “reduction in the initial tumor size at end of protocol” value ([3]; 30 mg/kg PO, 6 days per week, day 28) was 88% and the “effective oral doses for tumor regression” value ([3]; LAPC-4 xenograft, PO) was 3 to 30 mg/kg. The IC50 [4] was 5.78 µM.
